SMILES strings stand for the structures.

In one series the test system is CB BFU-E cells. Nature of the series: CB BFU-E cell proliferation (cells/colony). To be noted: FIG. 8. As for the experimental part:
Fetal globin-inducing activity in human erythroid progenitors was assessed. Human erythroid progenitors were cultured from peripheral blood samples, exposed to the test compounds at varying concentrations and for varying durations and analyzed for globin chain mRNA ratios. Erythroid progenitors were cultured from cord blood CD34+ cells. Briefly, CD34+ cells in the human cord blood were separated using a Ficoll-paque density gradient. CD34+ cells were cultured in H4230 medium containing 2 mM L-glutamine, 1% Methylcellulose in Iscove's Medium, 30% Fetal Bovine Serum, 1% Bovine Serum Albumin and 10^-4 M β-mercaptoethanol. Methylcellulose H4230 medium was supplemented with EPO (0.5 U/ml) and IL-3 (20 ng/ml) to support BFU-e growth. Cells were cultured in […] mini-dishes and incubated in a humidified atmosphere containing 5% CO2, at 37° C. Different concentrations of the test compounds were added at the time the cultures were established. Each compound was tested in three different cultures. BFU-e colonies grown in mini-dishes were counted on day 14 and harvested for mRNA analysis.

In series [1] the test system is γ-globin mRNA. Kind of series: γ-globin mRNA in cultured primary human erythroid progenitors (BFU-e), real-time PCR. The class given is cell-based. The settings on record: Resveratrol 0.2 uM. On the technique in general: In qPCR the cycle at which signal appears reflects the starting amount.
A further series relates to histone deacetylases. Nature of the series: Histone deacetylase inhibition.
A further series has as its system γ-globin gene promoter. Nature of the series: Dual luciferase reporter assay (μLCRβprRlucAγprFluc cassette) in GM979 cells. The class given is cell-based. To be noted: Resveratrol at 10 μM, MS-275 at 5 μM. An excerpt: Cell-based screen for γ-globin inducing compounds in GM979 cells (Skarpidi, et al. Blood 2000; 96:321-326). Mini-gene construct integrated into GM979 cell genome. The readout is Firefly/Renilla luciferase ratio, and is designed to identify only strong inducers of the γ-globin promoter, and specificity for the γ- vs. the […]γ-globin gene. This second assay confirmed 12/15 candidates.
This assay is […], and consists of a dual-luciferase reporter construct containing the LCR and the […] luciferase and the Aγ-globin promoter linked to firefly luciferase (μLCRβprRlucAγprFluc cassette), stably-transfected into GM979 cells. The orientation of the promoters and μLCR allowed detection only of strong, specific inducers of the γ-globin gene promoter. This assay is also been predictive of in vivo HbF-inducing activity.
The γ-globin-specificity of hits was determined in a secondary assay employing a stably-transfected dual-luciferase reporter construct containing the LCR and the β-globin promoter linked to renilla luciferase and the Aγ-globin promoter linked to firefly luciferase (μLCRβprRlucAγprFluc cassette) (FIG. 2B).

The test system of series [2] is γ-globin mRNA. Nature of the series: γ-globin mRNA in cultured primary human erythroid progenitors (BFU-e), real-time PCR. The class given is cell-based. As for the experimental part:
Erythroid progenitors were cultured from cord blood CD34+ cells. […] Each compound was tested in three different cultures. […] On day 14, RNA was extracted from cultured erythroid cells, and relative quantification PCR was performed. Briefly, cDNA was generated from equal amounts of total RNA extracted using The PerfectPure RNA Purification Kit (5 Prime Inc Gaithersburg, Md.). Real-time PCR was performed using an ABI 7500 Real-Time PCR system (Applied Biosystems, Foster City, Calif.). Levels of globin mRNA were calculated by the ΔΔCt method. […] GAPDH levels were used for standardization. Western blotting Nuclear extract of K562 cells and 14-day-old BFU-e were analyzed by electrophoresis using 5-24% gradient SDS-polyacrylamide mini-gels (BIORAD Laboratories. Hercules Calif.). Proteins in the gels were transferred to Immobilon-P membranes. Blots were then incubated with BCL11A polyclonal (Novus Biologicals, Littleton Co) or mouse monoclonal (Santa Cruz Biotechnology, Santa Cruz Calif.) antibodies, after washing blots were incubated with anti-rabbit IgG-horseradish peroxidase secondary antibody (ECL, Little Chalfont Buckinghamshire UK). BCL11A bands were detected on the X-ray film using Western Lightning Reagents (Perking Elmer Inc, Waltham, Mass.).

For series [3], the system named is γ-globin mRNA. Kind of series: γ-globin mRNA gene expression in K562 cells. The class given is cell-based.
Where [4] appears, read: Hemoglobin disorder progenitors.

For `Oc1ccc(C=Cc2cc(O)cc(O)c2)cc1` [Resveratrol, resveratrol], the “number of blood cells per colony” value with CB BFU-E cells is recorded as “increase the number of blood cells per colony”. Also, the “cytotoxicity / inhibition of erythroid cell proliferation” value in the series with CB BFU-E cells (Desloratadine 1 μM-10 μM, Resveratrol 0.05 μM-5 μM, Benserazide 0.1 μM-10 μM) is “non-cytotoxic”. Moreover, the “fetal globin mRNA, Mean” value with γ-globin mRNA [1] (Cord Blood progenitors) is on record as 217 % of control; in the series on γ-globin mRNA [1] (setting [4]) it was 245 % of control; with γ-globin mRNA [1] (Normal progenitors) it was 122 % of control. The “responses (cultures with induced fetal globin mRNA)” value is on record as 5/5 with γ-globin mRNA [1] (Cord Blood progenitors), 1/2 in the series with γ-globin mRNA [1] (setting [4]) and 1/2 in the series with γ-globin mRNA [1] (Normal progenitors). The “concentration that inhibits histone deacetylases” value in the series with histone deacetylases worked out at 0.05 µM. The “activity compared with sodium Butyrate” value in the series with γ-globin gene promoter (Ambroxol at 1 μM, Desloratadine at 1 μM, Benserazide at 0.03 μM (or a range of 30 nM-5 μM), NSC-95397 at 1 μM, versus sodium Butyrate at 2000 μM) is listed as “significantly more active”. Further, the “most active at inducing γ-globin mRNA expression” value in the series on γ-globin gene promoter (Benserazide at 0.03 μM) is recorded as “most active”. The “% induction of γ-globin mRNA gene expression” value is on record as “most significant % increase” in the series with γ-globin mRNA [2] (FIG. 4C, HFU-E (burst-forming units-erythroid) cells, Resveratrol 30 μM, desloratadine 50 μM, NSC 50 μM, Benserazine 5 μM); “most significant % increase” in the series on γ-globin mRNA [3] (FIGS. 4A and 4B, K562 cells, Resveratrol 30 μM, desloratadine 50 μM, NSC 50 μM, Benserazine 5 μM). Moreover, the “γ-globin mRNA induction” value with γ-globin mRNA [2] (cultured primary human erythroid progenitors, concentrations pharmacologically achievable in humans) was “up to 3 fold”. Further, the “concentrations that induce fetal globin (HbF) mRNA” value in the series with γ-globin mRNA [2] (primary erythroid progenitors in vitro) worked out at 0.05 µM. Also, the “concentration giving the most γ-globin mRNA expression” value with γ-globin mRNA [3] (FIG. 5, K562 cells, tested Desloratadine 10 μM-100 μM, Resveratrol 5 μM-30 μM, NSC 1 μM-50 μM) was 30 µM.

The values above are taken from patent US9018176B2, “Inducers of hematopoiesis and fetal globin production for treatment of cytopenias and hemoglobin disorders” (priority 2010, dated 2015).
